Source: PMC12268261, “The aldehyde (ALD) locus controls C6-aldehyde production in kiwifruit and affects consumer perception of fruit aroma” (Plant Physiology, 2025)
Where two headings read alike, the source gives them in different places.

How the values were obtained:
AcLOX4a-D1 = target: T1, AcLOX4a-D1 (Actinidia chinensis, UniProt A0A2R6P8A4); assay: spectrophotometric, product formation at […] nm; format: biochemical; conditions: air-saturated 30 mM Tris-Cl, pH 7.5, read-out: Km-app /
T1 construct: gene CEY00_Acc32486; N-terminal HIS6-MBP fusion (pMAL-c6T), tag kept; E. coli BL21 (DE3) Codon Plus RIL

AcLOX4c-D1 = target: T2, AcLOX4c-D1 (Actinidia chinensis, UniProt Z9ABF8LHO4); assay: spectrophotometric, product formation at […] nm; format: biochemical; conditions: air-saturated 30 mM Tris-Cl, pH 7.5; substrate inhibition at >50 µM; read-out: Km-app /
T2 construct: N-terminal HIS6-MBP fusion (pMAL-c6T), tag kept; E. coli BL21 (DE3) Codon Plus RIL
T2 sequence (Z9ABF8LHO4 57-898): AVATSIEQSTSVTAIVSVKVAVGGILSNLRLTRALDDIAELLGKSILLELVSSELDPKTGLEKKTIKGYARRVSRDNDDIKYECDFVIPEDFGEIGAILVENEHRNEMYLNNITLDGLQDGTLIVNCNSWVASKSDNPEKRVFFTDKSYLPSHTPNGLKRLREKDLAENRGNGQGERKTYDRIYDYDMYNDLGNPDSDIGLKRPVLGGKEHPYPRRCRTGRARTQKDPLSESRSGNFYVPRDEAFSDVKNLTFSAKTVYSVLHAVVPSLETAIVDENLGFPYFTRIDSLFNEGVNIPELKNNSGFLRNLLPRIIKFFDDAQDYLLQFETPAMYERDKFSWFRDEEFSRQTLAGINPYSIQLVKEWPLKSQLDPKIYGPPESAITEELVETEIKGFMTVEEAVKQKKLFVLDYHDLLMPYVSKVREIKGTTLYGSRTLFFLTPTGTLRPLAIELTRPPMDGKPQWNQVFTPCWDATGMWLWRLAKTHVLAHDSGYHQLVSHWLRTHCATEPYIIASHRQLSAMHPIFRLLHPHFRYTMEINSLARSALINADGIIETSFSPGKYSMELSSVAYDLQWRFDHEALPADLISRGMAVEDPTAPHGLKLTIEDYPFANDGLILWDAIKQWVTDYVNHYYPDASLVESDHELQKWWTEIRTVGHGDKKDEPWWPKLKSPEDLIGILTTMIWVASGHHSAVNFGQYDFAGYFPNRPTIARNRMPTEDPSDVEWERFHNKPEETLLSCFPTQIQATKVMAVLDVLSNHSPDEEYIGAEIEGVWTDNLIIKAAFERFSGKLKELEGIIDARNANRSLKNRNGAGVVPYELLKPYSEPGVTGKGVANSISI

T1 sequence (A0A2R6P8A4 entry or part of it): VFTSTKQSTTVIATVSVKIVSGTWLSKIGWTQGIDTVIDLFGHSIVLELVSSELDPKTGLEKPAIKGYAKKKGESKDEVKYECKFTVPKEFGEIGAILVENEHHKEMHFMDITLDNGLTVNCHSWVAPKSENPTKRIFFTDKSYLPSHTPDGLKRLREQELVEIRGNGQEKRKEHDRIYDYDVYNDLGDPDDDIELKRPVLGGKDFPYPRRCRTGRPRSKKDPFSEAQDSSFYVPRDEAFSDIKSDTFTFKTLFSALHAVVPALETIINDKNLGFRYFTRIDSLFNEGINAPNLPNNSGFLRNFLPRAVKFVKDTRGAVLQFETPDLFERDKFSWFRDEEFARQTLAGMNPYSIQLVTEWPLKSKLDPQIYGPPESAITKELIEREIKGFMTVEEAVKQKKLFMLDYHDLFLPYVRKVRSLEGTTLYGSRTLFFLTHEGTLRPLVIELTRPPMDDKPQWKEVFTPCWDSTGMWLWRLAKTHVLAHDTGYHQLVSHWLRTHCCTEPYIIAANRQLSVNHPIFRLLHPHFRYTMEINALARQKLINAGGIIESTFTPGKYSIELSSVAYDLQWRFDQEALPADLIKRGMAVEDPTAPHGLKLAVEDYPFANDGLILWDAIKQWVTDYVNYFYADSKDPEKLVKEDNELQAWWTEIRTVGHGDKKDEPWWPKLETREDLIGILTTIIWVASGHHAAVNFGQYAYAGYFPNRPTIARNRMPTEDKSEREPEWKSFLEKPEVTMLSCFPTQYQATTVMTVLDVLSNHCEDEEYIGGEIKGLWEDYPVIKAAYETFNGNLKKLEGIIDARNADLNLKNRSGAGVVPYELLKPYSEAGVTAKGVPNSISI

CC/C=C\C/C=C\C/C=C\CCCCCCCC(=O)O [α-linolenic acid]
Km (AcLOX4a-D1): 133 µM

CCCCC/C=C\C/C=C\CCCCCCCC(=O)O [linoleic acid]
Km (AcLOX4a-D1; substrate inhibition at >125 µM): 193 µM
Km (AcLOX4c-D1): 59.2 µM
